# Paper PMC5586252, “PP2A-B′ holoenzyme substrate recognition, regulation and role in cytokinesis” (Cell Discovery, 2017)
# “Also recorded” adds a separate entry of the source. Where no end group is shown, it is not given here.
# Legend:
# [1] = tested on: PP2Ac–Cyk4 interaction in HeLa cells; assay: Co-immunoprecipitation of FLAG-Cyk4 with PP2Ac in synchronized cells; format: cell-based; settings: 200 nM for 30 min; HeLa cells with FLAG-Cyk4 and V5-CIP2A, synchronized with monastrol, 0–90 min after its removal
# Protocol: Thirty-six hours after HeLa cells were transfected with FLAG-Cyk4 and V5-CIP2A expression vectors, the transfected cells were arrested at […] with 100 μM monastrol for 14 h, followed by incubation with 200 nM BI-2536 or solvent control for 30 min. Cells were collected at the indicated time points after removal of monastrol to allow cell cycle progression. The interaction between FLAG-Cyk4 and PP2Ac were determined by co-immunoprecipitation using antibody that specifically recognizes FLAG-tag. PP2Ac associated with FLAG-Cyk4 and from cell lysate input were determined by western blot using customer-made antibody against PP2Ac.
# B′γ1 = molecular target: T1, B′γ1 (Homo sapiens, UniProt Q13362); assay: Isothermal titration calorimetry of synthetic peptides; format: binding; settings: for interaction with B′γ1 by ITC (in words): phospho-peptides with pS/pT at position 6 and negatively charged residues at positions 2, 7 and 8; for Kd: ITC, 1 mM peptide titrated to 20–50 μM B′γ1, 20 mM HEPES pH 7.5, 200 mM NaCl
# T1 construct: Expression and purification of full-length PP2A Aα, Cα, B′γ1 and PR70 (B″ family); made in house
# Protocol: The binding affinities between B′γ1 and synthetic CIP2A and Cyk4 peptides (GenScript, Piscataway, NJ, USA) were determined by titrating 1 mM of peptides to 20–50 μM B′γ1 in 20 mM HEPES (pH 7.5), 200 mM NaCl using VP-ITC microcalorimeter (MicroCal, Malvern Instrument, Malvern, UK). The data were fitted with Origin 7.0 (MicroCal, Malvern Instrument, Malvern, UK) to calculate the equilibrium association constant.
# T1 sequence (Q13362 whole entry, looked up): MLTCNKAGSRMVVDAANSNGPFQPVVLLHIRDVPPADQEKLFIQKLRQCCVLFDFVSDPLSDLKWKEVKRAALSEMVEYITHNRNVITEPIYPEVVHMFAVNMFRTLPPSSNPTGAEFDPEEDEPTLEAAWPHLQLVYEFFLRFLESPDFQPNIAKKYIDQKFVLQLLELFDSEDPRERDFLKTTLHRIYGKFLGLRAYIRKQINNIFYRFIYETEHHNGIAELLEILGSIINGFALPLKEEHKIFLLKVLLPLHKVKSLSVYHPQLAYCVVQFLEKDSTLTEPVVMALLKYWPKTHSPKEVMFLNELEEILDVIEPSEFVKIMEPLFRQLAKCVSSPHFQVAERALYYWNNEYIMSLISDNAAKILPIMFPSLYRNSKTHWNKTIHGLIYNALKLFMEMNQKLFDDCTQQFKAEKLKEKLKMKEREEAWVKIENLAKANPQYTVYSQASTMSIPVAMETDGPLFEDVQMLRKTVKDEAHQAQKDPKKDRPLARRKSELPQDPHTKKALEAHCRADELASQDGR
compound,measurement,setting,value
CC[C@@H]1C(=O)N(C)c2cnc(Nc3ccc(C(=O)NC4CCN(C)CC4)cc3OC)nc2N1C1CCCC1 [BI-2536],effect on interaction between PP2Ac and Cyk4 (co-IP),[1],blocked and delayed the interaction between PP2Ac and Cyk4
LEPIRpSEE,interaction with B′γ1 by ITC (in words),B′γ1,no binding; also recorded: no interaction could be detected
LEPIRpTEE,interaction with B′γ1 by ITC (in words),B′γ1,no binding; also recorded: no interaction could be detected
LEPVRpSEE,interaction with B′γ1 by ITC (in words),B′γ1,no binding; also recorded: no interaction could be detected
NKRLSTIDEEGS [Cyk4 peptide S149E],Kd,B′γ1,1.59 µM
NRKLESVAEEHE [CIP2A peptide],Kd,B′γ1,7.2 µM
